Experimental data as given in patent US12673039B2, “Methods of inducing autophagy using coumarin derivatives and related compounds” (Buck Institute for Research on Aging, priority 2019, dated 2026).

Experiments:
UA44 worms = test: Dopaminergic neuronal loss in UA44 worms expressing human α-synuclein; assay type: in vivo, C. elegans
[1] = test system: parkin mutant PD mouse model; test: Age-related parkin mutant PD mouse model, C1 in the feed; assay type: in vivo; details: oral in the feed
From the text: Relative TFEB expression as assessed by qPCR from mRNA extracted from the SNpc of parkin mutant versus WT littermates administered C1 in the feed versus normal chow; UA was included as a positive control.
Stereological DAergic SNpc counts and motor behavior as assessed by rearing frequency in parkin mutant versus WT littermates administered C1 in the feed versus normal chow.

SH-SY5Y cells = test: Immunoblot of TFEB, cathepsin-D and SHP-1 in SH-SY5Y cells; assay type: cell-based, human; details: 24 hours
Description: FIG. 23, panels A-H: FXR modulation enhances HLH-30 expression in human neuronal SH-SY5Y cells. Panel A) Effects of AIC106 on human FXR activity was determined in a mammalian one-hybrid based kit assay by quantifying changes in the luciferase activity of FXR ligand (GW4064, GW) induced treatment. [N=3 independent experiments (mean±SD). ****p<0.0001, by one-way ANOVA with Tukey's multiple comparisons test]. Panel B) Protein expression of TFEB, cathepsin-D (CAT-D) and small heterodimer partner-1 (SHP-1) was determined by immunoblot in neuronal SH-SY5Y cells post-24 hours of treatment with AIC106 and DMSO-control. Panel C) AIC106 enhances autophagic flux in neuronal SH-SY5Y cells. Autophagic flux in DMSO-control and AIC106 treated neuronal cells was determined by quantifying levels of autophagosome specific LC3-II protein both in presence and absence of autophagy inhibitor bafliomycin A1 (Baf A, 10 nM). Panel D) Relative fold change in the band intensity of LC3-II protein, normalized to loading control actin. Values are relative to DMSO-control. [N=3 independent experiments (mean±SD). *p<0.05 and ****p<0.0001, by one-way ANOVA with Tukey's multiple comparisons test]. Panel E) Effects of AIC106 treatment for 72 hours on basal TAU and phosphorylated-TAU in differentiated human neuronal SH-SHY5Y and heterozygous TSC1(+/−) mutant SH-SY5Y neuronal cells were quantitated by immunoblotting following total protein extraction. Relative fold change in the band intensity compared to SH-SY5Y control treatment for (panel F) total TAU and (panel G) phosphorylated-TAU, normalized to loading control GAPDH. [N=3 independent experiments (mean±SD). *p<0.05 and **p<0.01, by one-way ANOVA with Sidak's multiple comparisons test]. Panel H) AIC106 treatment improves viability and health of differentiated SH-SY5Y-TSC1(+/−) neuronal cells. Images were taken post-96 hours after treatment of differentiated neuronal cells with AIC106.
FIG. 30, panels A-B: FXR modulation enhances HLH-30 expression in human neuronal SH-SY5Y cell. Panel A) TFEB expression in SH-SY5Y cells was determined by immunoblot against TFEB in protein lysates collected after 24 hours of treatment with FXR agonist GW4064 and DMSO control. Panel B) Phosphorylated-TAU levels in SH-SY5Y-P301L-TAU cells was determined by immunoblot against (Ser202, Thr205) in protein lysates collected after 24 hours of treatment with known FXR antagonist Z-gugglsterone (z-GG), DY268 and DMSO control.

AM141 worm = test: polyQ40 aggregation in AM141 worms; assay type: in vivo, C. elegans; details: dose dependent
From the text: FIG. 21, panels A-F: AIC106 prevents neuronal loss and proteotoxicity in strains expressing human neurotoxic proteins. Panel A) Dopaminergic neuronal loss in day-5 UA44 worms was quantified by scoring percentage of worms with intact 4-CEP neurons in AIC106 and DMSO-control treatment. [N=3 independent experiments (mean±SD). ***p<0.001, by one-way ANOVA with Tukey's multiple comparisons test]. Motor function in (panel B) day-7 NL5901 and (panel C) day-5 CL2006 worms were quantified by scoring number of thrashes for an individual worm over the period of 30 seconds (dots) in AIC106 and DMSO-control treatment. […] Panel D) Motor function in temperature sensitive (enhanced paralysis at 25° C.) CL4176 worms was determined by scoring percent of worms paralyzed in AIC106 and DMSO-control treatment. […] P-value calculated by Logrank test]. Panel F) Effect of AIC106 on polyQ40 aggregation was determined by scoring number of polyQ40-YFP fluorescent puncta in an individual AM141 worm treated with AIC106 and DMSO-control. […]
Synchronized populations of day-1 adult worms expressing reporter GFP transgene or stained with a dye/stain (Lysotracker and TMRM) and grown at 20° C. were transferred to compound or DMSO plates. Fluorescence expression was analyzed at the time specified for each individual strain (see figure legends). […] Fluorescence intensity normalized to worm area was measured using NIH ImageJ software. […]

Structure (SMILES): O=c1oc2c3c4c(cc2c2c1CCC2)CCCN4CCC3 [C1, 2,3,6,7,10,11-Hexahydro-1H,5H-cyclopenta(3,4)(1)benzopyrano(6,7,8-ij)quinolizin-12(9H)-one]
- neuronal loss (UA44 worms; strain expressing human α-synuclein within dopaminergic neurons): prevented neuronal loss
- neuroprotection (UA44 worms; worms treated with hlh-30 RNAi): failed to show any neuroprotection
- motor deficits (rearing frequency) ([1]; 6 month period (FIG. 16)): prevents both neuronal cell loss and motor deficits
- neuronal cell loss (DAergic SNpc counts) ([1]; 6 month period (FIG. 16)): prevents both neuronal cell loss and motor deficits
- TFEB expression in SNpc ([1]; 6 month period from 14-16 mo. (FIG. 15)): TFEB target engagement
- TFEB protein expression (SH-SY5Y cells): increased expression TFEB protein
- cathepsin D (CATD) protein expression (SH-SY5Y cells): enhanced protein expression of TFEB target gene cathepsin D
- small heterodimer partner-1 (SHP-1) expression (SH-SY5Y cells): reduced expression of ligand-bound FXR target, small heterodimer partner-1
- poly-Q40 aggregates (AM141 worm): significantly decreased poly-Q40 aggregates
